Patent US8476233B2, “Methods for treatment for ulcerative colitis in mammals” (Therapeutic Research, LLC, priority 2003, dated 2013)
Read-outs that look alike come from different tables or passages of the source.

What was measured:
ulcerative colitis = assay: Example 3: patient's response to earlier therapies; format: in vivo, human; settings: patient history before the treatment of the invention
From the text: The recurrences occurred every 3-5 months.

[1] = test system: mitochondrial electron transport chain (whole chain respiration); settings: same study as cigarette tar; cited from earlier work
[2] = test system: glutathione peroxidase (GPx); settings: cited from earlier work
colonic mucosa = settings: rats, 3% solution, cited from earlier work

Q: For `C[C@]12C=CC(=O)C=C1CC[C@@H]1[C@@H]2C(=O)C[C@@]2(C)[C@H]1CC[C@]2(O)C(=O)CO` [prednisone], which “clinical response of ulcerative colitis episodes to earlier therapy” value (ulcerative colitis) is on record?
A: Its value is “improved for a few months”.

Q: Which “effect on electron transport activity” value [1] does the source give for `CN1CCCC1c1cccnc1` (stereo not shown) [nicotine] here?
A: The value was “no effect”.

Q: For `N[C@@H](CCS)C(=O)O` [Homocysteine, homocysteine], which “inhibition of glutathione peroxidase (GPx) activity” value ([2]; Outinen et al., 1999) is on record?
A: The value was 10 fold.

Q: And the “concentration of free homocysteine at which inhibition of GPx occurs” value ([2]; physiologic concentration, Chen, 2000)?
A: Its value is 9 µmol/L.

Q: Which “extent of mucosal inflammation above the anus” value (colonic mucosa; 5 hours after injection) does the source give for `OO` [hydrogen peroxide] here?
A: The value was 5 cm.

Q: What about the “extent of mucosal inflammation above the anus” value (colonic mucosa; by one week) of the same compound?
A: The value was 9 cm.

Q: What about the “colonic outcome of rectal injection” value (colonic mucosa; rectal injection) of the same compound?
A: The value was “acute and chronic ulcerative colitis”.
